Results reported in US5409692A, “Glucosyltransferase inhibitors, as well as dental caries prevention methods and anticarious foods using the same” (priority 1990, dated 1995).
In brackets after ≈: the same amount, converted by molar mass. Values belong to the compound of their own block, whether it stands above or below them.

Assays:
glucosyltransferase [1] = assay: Glucosyltransferase inhibition activity (insoluble glucan, absorbance at 550 nm); assay type: biochemical, S. mutans MT8148; details: 0.15 ml of 2,000 ppm sample solution in 3 ml total volume; pH 6.0, 37° C., 3 hours; control water
Description: As an enzyme solution, was used an extract which was obtained by culturing S. mutans MT8148 strain on Todd-Hewitt medium and then extracting hyphae with 8M urea in accordance with the method proposed by Hamada et al. [S. Hamada et al., J. Gen. Microbiol., 35, 335- 344 (1999 )].
A reaction system was prepared by adding 0.15 ml of an aqueous solution of a sample, said solution having been prepared to contain the sample at the concentration of 2,000 ppm, the enzyme solution prepared from the S. mutans strain and water to 0.6 ml of 500 mM sodium phosphate buffer which had pH 6.0 and contained 5% of sucrose, 0.5% of dextran T10 and 0.5% of sodium azide. The water was added in an amount to give a total volume of 3 ml. They were reacted in a glass test tube. In the above measurement, the amount of the enzyme was set such that the absorbance at 550 nm became about 1.0 when reacted at 37° C. for 3 hours.
Resultant insoluble glucan was subjected to ultrasonic disintegration and the; absorbance (A) at 550 nm was measured. Using as control (B) the absorbance obtained from the use of water in place of the sample solution, the inhibition rate (%) was determined in accordance with the following calculation formula: [formula] (Measurement results )
The glucosyltransferase inhibition activities of the extracts of the various fermented tea leaves, said extracts having been obtained in Examples 1, 2 and 3, and of caffeine and catechins, which are representative components of tea leaves, were measured using the above reaction system.

glucosyltransferase [2] = assay: Anti-glucan formation test; assay type: biochemical, S. mutans MT8148; details: 0.3 ml of 10% sample solution in 3 ml; pH 6.0, 37° C., 3 hours; relative to sugar
Description: To a mixture consisting of 0.3 ml of a 10% sample solution, 0.3 ml of 1M sodium phosphate buffer-which had pH 6.0 and contained 1.0% of dextran T10 and 1.0% of sodium azide--and a glucosyltransferase enzyme solution, water was added in an amount to give a total volume of 3 ml so that a reaction system was prepared. They were reacted in a glass test tube.
Insoluble glucan thus formed was subjected to ultrasonic disintegration, and the absorbance (A) at 550 nm was measured.
As the glucosyltransferase enzyme solution, was used an extract which was obtained by culturing S. mutans MT8148 strain on Todd-Hewitt medium and then extracting hyphae with 8M urea in accordance with the method proposed by Hamada et al. [S. Hamada et al., J. Gen. Microbiol., 135, 335-344 (1989)].

S. mutans MT8148 strain = assay: Anti-plaque test (in vitro plaque formation); assay type: cell-based; details: sample 5% in Dulbecco's modified Eagle's medium, 37° C., 1 day, anaerobic; Average ± S.D.; anticarious sugar of Example 10
Description: The test was carried out in the following manner. Culture media were prepared by adding the test samples at the concentration of 5% to Dulbecco's modified Eagle's medium, respectively. 6-ml Portions of the media were added to glass test tubes, respectively, to which S. mutans MT8148 strain was planted. After the cells were cultured at 37° C. for 1 day under anaerobic conditions, the amounts of plaque adhered on the walls of the respective test tubes were weighed.

[3] = Solubility in distilled water; assay type: physicochemical; details: for solubility: distilled water, water
Source text: Sugar: Refined sugar (prime grade)
Palatinose: Crystalline palatinose

Structure (SMILES): Oc1cc(O)c2c(c1)OC(c1ccc(O)c(O)c1)C(O)C2 (stereo not shown) [Catechin]
Inhibition rate, % (glucosyltransferase [1]): 13%

Structure (SMILES): O=C(O[C@@H]1Cc2c(O)cc(O)cc2O[C@@H]1c1ccc(O)c(O)c1)c1cc(O)c(O)c(O)c1 [Epicatechin gallate]
Inhibition rate, % (glucosyltransferase [1]): 19%

Structure (SMILES): Oc1cc(O)c2c(c1)O[C@H](c1ccc(O)c(O)c1)[C@H](O)C2 [Epicatechin]
Inhibition rate, % (glucosyltransferase [1]): 14%

Structure (SMILES): Oc1cc(O)c2c(c1)O[C@H](c1cc(O)c(O)c(O)c1)[C@H](O)C2 [Epigallocatechin]
Inhibition rate, % (glucosyltransferase [1]): 11%

Structure (SMILES): Oc1cc(O)c2c(c1)O[C@H](c1cc(O)c(O)c(O)c1)[C@@H](O)C2 [Gallocatechin]
Inhibition rate, % (glucosyltransferase [1]): 15%

Structure (SMILES): OC[C@H]1O[C@H](OC[C@H]2OC(O)(CO)[C@@H](O)[C@@H]2O)[C@H](O)[C@@H](O)[C@@H]1O (stereo partly shown) [Palatinose, palatinose]
Relative amount of formed glucan, % (glucosyltransferase [2]): 2%
Amount of plaque formed (S. mutans MT8148 strain): 2.01 ± 0.22 mg
Solubility (in words) [3]: low solubility especially at low temperatures
solubility ([3]; 10° C.): 210 mg/mL (≈ 614 mM)
solubility ([3]; 30° C.): 320 mg/mL (≈ 935 mM)
solubility ([3]; 50° C.): 440 mg/mL (≈ 1290 mM)
solubility ([3]; 70° C.): 580 mg/mL (≈ 1690 mM)

solubility ([3]; 10° C.): 630 mg/mL (≈ 1840 mM)
solubility ([3]; 30° C.): 680 mg/mL (≈ 1990 mM)
solubility ([3]; 50° C.): 720 mg/mL (≈ 2100 mM)
solubility ([3]; 70° C.): 740 mg/mL (≈ 2160 mM)
Structure (SMILES): OC[C@H]1O[C@@](CO)(O[C@H]2O[C@H](CO)[C@@H](O)[C@H](O)[C@H]2O)[C@@H](O)[C@@H]1O [Sugar]
